Assay [1] concerns the target T1, Induced myeloid leukemia cell differentiation protein Mcl-1 (Homo sapiens, UniProt Q07820).
Description: Inhibition of Mcl-1 (unknown origin) assessed as inhibition constant
Assay [2] deals with T2, Bcl-2-related protein A1 (Homo sapiens, UniProt Q16548).
T2 sequence (Q16548 whole entry): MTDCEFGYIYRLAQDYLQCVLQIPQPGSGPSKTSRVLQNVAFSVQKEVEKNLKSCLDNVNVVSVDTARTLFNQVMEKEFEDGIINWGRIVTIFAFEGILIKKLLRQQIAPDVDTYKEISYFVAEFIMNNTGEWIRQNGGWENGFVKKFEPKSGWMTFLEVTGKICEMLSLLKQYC
Description: Inhibition of recombinant Bfl-1 (1-152) (unknown origin) by TR-FRET assay

Assay [3] addresses T2, Bcl-2-related protein A1. Description: Inhibition of Bfl-1 (unknown origin) assessed as inhibition constant.
Another assay deals with Bcl-2-like protein 1 (Homo sapiens, UniProt Q07817). Description: Inhibition of GST fused Bcl-xL (unknown origin) incubated for 5 min by TR-FRET assay. A general note: TR-FRET usually uses a lanthanide donor and a delayed reading to cut background.
Assay [4] deals with Apoptosis regulator Bcl-2 (Homo sapiens, UniProt P10415). Description: Inhibition of GST fused Bcl-2 (unknown origin) incubated for 5 min by TR-FRET assay.
The target of assay [5] is T1, Induced myeloid leukemia cell differentiation protein Mcl-1. Description: Inhibition of GST fused Mcl-1 (unknown origin) incubated for 5 min by TR-FRET assay.
For another assay, the target named is T3, Bcl-2-like protein 2 (Homo sapiens, UniProt Q92843).
T3 sequence (Q92843 whole entry): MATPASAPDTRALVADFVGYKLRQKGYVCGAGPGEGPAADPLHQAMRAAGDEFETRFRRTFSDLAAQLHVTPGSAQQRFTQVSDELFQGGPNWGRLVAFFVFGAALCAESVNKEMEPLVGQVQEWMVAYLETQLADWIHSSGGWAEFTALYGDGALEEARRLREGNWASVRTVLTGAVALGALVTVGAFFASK
In words: Inhibition of GST fused Bcl-w (unknown origin) incubated for 5 min by TR-FRET assay.

Assay [6] addresses T2, Bcl-2-related protein A1. In words: Inhibition of GST-tagged Bfl-1 (unknown origin) incubated for 60 min by TR-FRET assay.
For assay [7], the target named is T2, Bcl-2-related protein A1. In words: Inhibition of Bfl-1 (unknown origin) incubated for 30 min by fluorescence polarization assay. Background: Polarisation of emitted light reports the rotation of a fluorescent probe.

Each structure is given as a SMILES string.

As a reminder, the Ki is the equilibrium dissociation constant of an inhibitor or competing ligand from its target. As a reminder, the IC50 is the point on the concentration scale where inhibition reaches its midpoint. Low values mean inhibition by little substance, high ones a need for much substance.

T1 sequence (Q07820 whole entry): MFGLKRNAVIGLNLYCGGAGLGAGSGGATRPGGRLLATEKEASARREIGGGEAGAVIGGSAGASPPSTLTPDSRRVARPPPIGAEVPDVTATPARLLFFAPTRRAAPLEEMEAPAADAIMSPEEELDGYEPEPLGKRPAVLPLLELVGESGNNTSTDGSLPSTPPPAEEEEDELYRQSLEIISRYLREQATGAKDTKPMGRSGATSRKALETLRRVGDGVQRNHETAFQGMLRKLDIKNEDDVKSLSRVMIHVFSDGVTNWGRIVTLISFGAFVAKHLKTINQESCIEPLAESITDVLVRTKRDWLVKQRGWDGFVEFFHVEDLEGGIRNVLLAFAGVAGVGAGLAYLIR
Apoptosis regulator Bcl-2, sequence (P10415 whole entry, the tested form may be a part): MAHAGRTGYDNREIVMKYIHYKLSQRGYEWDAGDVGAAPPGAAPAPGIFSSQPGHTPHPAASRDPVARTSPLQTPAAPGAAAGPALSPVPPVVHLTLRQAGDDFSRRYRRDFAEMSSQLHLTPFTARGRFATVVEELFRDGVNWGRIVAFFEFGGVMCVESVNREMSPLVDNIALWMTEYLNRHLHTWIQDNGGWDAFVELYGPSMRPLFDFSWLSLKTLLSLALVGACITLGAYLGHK
Bcl-2-like protein 1, sequence (Q07817 whole entry, the tested form may be a part): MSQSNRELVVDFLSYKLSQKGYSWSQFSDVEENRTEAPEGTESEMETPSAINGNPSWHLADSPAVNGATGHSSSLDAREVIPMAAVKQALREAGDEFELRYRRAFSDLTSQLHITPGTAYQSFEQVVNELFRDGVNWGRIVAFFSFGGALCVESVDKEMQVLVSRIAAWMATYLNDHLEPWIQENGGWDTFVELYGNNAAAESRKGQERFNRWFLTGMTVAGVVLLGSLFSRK

Turning to `O=C(O)CSc1cc(NS(=O)(=O)c2ccc(Br)cc2)c2ccccc2c1O`, the inhibitory constant (Ki) is 1.91 µM in assay [1] and 3.17 µM at Bcl-2-related protein A1 [3]. At Bcl-2-related protein A1 [2], the IC50 is 8.41 µM. Consider `CCOC(=O)CS(=O)(=O)c1nc(-c2ccc(F)cc2)cc(C(F)(F)F)n1`, for which the IC50 (on Bcl-2-like protein 1; in assay [4]; in assay [5]; on Bcl-2-like protein 2) was above 100 µM each time. At Bcl-2-related protein A1 [2], `O=C(O)CSc1cc(NS(=O)(=O)c2cccs2)c2ccccc2c1O` came in with an IC50 of 4.61 µM. Regarding `O=C(O)CSc1cc(NS(=O)(=O)c2ccc(-c3ccccc3)cc2)c2ccccc2c1O`, the Ki in [1] amounted to 4.71 µM; on Bcl-2-related protein A1 [3], 2.21 µM.

For the compound `COc1ccc(C(c2c(-c3ccccc3)n(O)c3ccccc23)N2CCN(C)CC2)cc1` (stereo unspecified), the values for the half-maximal inhibitory concentration (IC50) against Bcl-2-related protein A1 [6] and at Bcl-2-related protein A1 [7] were 1.4 µM and 0.8 µM, respectively. For `COc1ccc(S(=O)(=O)Nc2cc(SCC(=O)O)c(OC)c3ccccc23)cc1`, the inhibitory constant (Ki) at Bcl-2-related protein A1 [3] is above 50 µM. As for `COC(=O)CSc1cc(NS(=O)(=O)c2ccc(-c3ccccc3)cc2)c2ccccc2c1OC`, the Ki at Bcl-2-related protein A1 [3] is above 50 µM. On the same count and under the same terms, for `COc1c(SCC(=O)O)cc(NS(=O)(=O)c2ccc(C)cc2)c2ccccc12` the value was above 50 µM. Consider `CC(C)=CCC[C@]1(C)C=Cc2c(O)c3c(c(CC=C(C)C)c2O1)O[C@]12C(=C[C@@H]4C[C@H]1C(C)(C)O[C@@]2(C/C=C(/C)C(=O)O)C4=O)C3=O` [GAMBOGIC ACID], for which 0.176 µM corresponded to half-maximal inhibition at Bcl-2-related protein A1 [2] (IC50).

The record behind these values is ChEMBL document CHEMBL5335817, “Discovery and optimization of (2-naphthylthio)acetic acid derivative as selective Bfl-1 inhibitor” (Bioorg Med Chem Lett, 2024).
